Data published in patent US5096929A, “2-amino-1,2,3,4-tetrahydronaphthalene derivatives with cardiovascular activity, process for their preparation and pharmaceutical compositions containing them” (Chiesi Farmaceutici S.p.A., priority 1989, dated 1992).
Counter-ions that a name gives are not always drawn. Like-named read-outs stand apart in the source and are kept apart here.

Tests used:
[1] = Evaluation of acute toxicities, rat; settings: in vivo, male/female, read-out: Acute toxicity mean LD50
Description: (§1) Evaluation of acute toxicities

[2] = test system: alpha-adrenergic cardiac receptors; test: Mechanism of cardiostimulant action: alpha-adrenergic cardiac receptors; settings: mechanism study
Description: (§2) The mechanism of the inotropic activity of CHF 1255 has been studied in a series of other tests.
(§3) Studies have excluded the possibility that the cardiostimulant action of the compound is due to catecholamines release, to the stimulation of alpha-adrenergic cardiac receptors, or to the stimulation of histaminergic H1 and H2 receptors.

[3] = test system: phosphodiesterase; test: Mechanism of cardiostimulant action: phosphodiesterase inhibition; settings: mechanism study
Description: as §2, §3

[4] = test system: arterial rat hind quarter; test: Rat perfused hind quarter; vasodilating action; settings: for Emax: Rattus norvegicus, 100% = complete reduction
Protocol: Rat perfused hind quarter; vasodilating action
The vasodilating effect of CHF 1255 has been evaluated in the arterial rat hind quarter perfused with Krebs-Henseleit solution at constant flow.
The increase of arterial resistance was induced by K^+ -enriched solution (40 mM), norepinephrine (5×10^-6 M) and serotonin (5×10^-7 M).
Papaverine and prazosin, powerful α-blocker vasodilator, were used as reference compounds.
ED40 =dose (moles) decreasing of 40% the contraction induced by the agonist. 100% was considered as the complete recduction of contraction.

[5] = test system: rabbit isolated aorta; test: Rabbit isolated aorta, inhibition of norepinephrine dose-response curve
[6] = test system: beta-1 adrenergic receptors; test: Isolated rat left atrium: interactions with beta-adrenergic receptors (atenolol antagonism)
Protocol: Isolated rat left atrium: interactions with beta-adrenercic receptors.
The affinity for beta-1 adrenergic receptors has been evaluated in the rat left atrium as previously described.
In this test, dose-response curves of CHF 1255 were recorded in the absence and in the presence of increasing concentrations (10^-8 to 3×10^-7 M) of the selective beta-1 blocker atenolol.

[7] = Evaluation of acute toxicities, mouse; settings: in vivo, male, read-out: Acute toxicity mean LD50
Description: as §1

[8] = test system: histaminergic H1 receptors; test: Mechanism of cardiostimulant action: histaminergic H1 receptors; settings: mechanism study
Description: as §2, §3

[9] = test system: isolated rat left atrium; test: Isolated rat left atrium: inotropic activity (force); settings: for EC50 / Emax: Rattus norvegicus; for EC50: read-out: EC50, left atrium (force)
Protocol: (§4) The inotropic and chronotropic effects of compound (Ia) of the invention were determined in vitro using, respectively, isolated rat left atrium and right atrium.
Left atrium:inotrocic activity
The atria were subjected to a 0.5 g starting tension and suspended in a bath containing aerated Krebs-Henseleit j solution with 95% O2 and […] kept at 32.C. The preparation was stimulated at a 4 Hz frequency with pulses during 5 msec each. The contraction strength was detected by an isometric transducer and recorded on a microndynamometer.
(§5) The results were expressed as the percentage of the response obtained with a maximal dose ([…]) of isoproterenol which was determined at the beginning of the test. In Table 1 the potency (EC50=effective concentration inducing the 50% of the maximal effect) and the relative intrinsic activity (expressed as α and compared with that of isoproterenol, taken=1) are shown.
(§6) The effects of the compounds were evaluated in rat isolated atria according to the previously described method.
(§7) Table 3. Potency (EC50) and intrinsic activity (α;isoproterenol=1) on the isolated rat left atrium (Inotropic activity) and right atrium (chronotropic activity).

[10] = biological target: T1, beta-2 adrenergic receptors (Cavia porcellus, UniProt Q8K4Z4); test: Isolated guinea-pig trachea: interactions with beta-2 adrenergic receptors (relaxation of carbachol contraction); settings: for EC50: carbachol 3×10^-7 M
T1 construct: Trachea strips were isolated and prepared according to the method described by Emerson J and Machay D; from tissue; host or cells: guinea-pig isolated trachea strips
Protocol: The selectivity of this interaction has been studied by evaluating the effects on beta-2 adrenergic receptors, in the guinea-pig isolated trachea, using CHF 1026 as reference compound.
Isolated guinea-pig trachea: interactions with beta-2 adrenergic receptors
Trachea strips were isolated and prepared according to the method described by Emerson J and Machay D in J Pharm Pharmacol 1979, 31, 798, immersed in Krebs-Henseleit solution (37° C., 95% O2 +5% CO2), subjected to an initial tension of 1 g and contracted with carbachol (3×10^-7 M).
Dose-response curves of CHF 1255 and CHF 1026 were recorded in the absence and in the presence of 10^-6 M propranolol, used as antagonist and added to the bath before the stimulation with carbachol.
The obtained results are shown in Table 2, expressed as potency (EC50 calculated from t he dose--response curve) and intrinsic activity (α, isoproternol=1).

[11] = test system: anesthetized dog; test: Anesthetized dog: cardiovascular activity; format: in vivo, Beagle dog; settings: for Hypotensive action / Increase of the cardiac output / Increase of the stroke volume / Reduction of the systemic arterial resistances: i.v. bolus
Protocol: The interesting hemodynamic properties of CHF 1255 were confirmed in vivo in the anesthetized dog.
Anesthesized dog: cardiovascular activity
Beagle dogs were anesthetized with sodium pentobarbital (30 mg/kg iv) thoracotomized and monitored by recording cardiocirculatory parameters.
CHF 1255 and the reference drugs (amrinone and xamoterol) were administered i.v. in a bolus.
CHF 1255 at the doses of 0.3-1.3 μmoles/kg i.v. confirmed its activity in changing hemodynamic parameters.

[12] = test system: beta-2 adrenergic receptors; test: Isolated guinea-pig trachea: interactions with beta-2 adrenergic receptors (relaxation of carbachol contraction); settings: inferred from selective beta-1 agonism
[13] = test system: isolated rat right atrium; test: Isolated rat right atrium: chronotropic activity (frequency); settings: for EC50 / Emax: Rattus norvegicus; for EC50: read-out: EC50, right atrium (frequency)
Protocol: as §4
Right atrium:chronotrpic activity
The preparation was prepared in the same way and under the same conditions as described above, but was not subjected to electric stimulation. Frequency was monitored by a cardiotachograph.
as §5, §6, §7

[14] = test system: histaminergic H2 receptors; test: Mechanism of cardiostimulant action: histaminergic H2 receptors; settings: mechanism study
Description: as §2, §3

[15] = 1st of three doses (0.3-1.3 μmoles/kg)
[16] = 2nd of three doses (0.3-1.3 μmoles/kg)
[17] = 3rd of three doses (0.3-1.3 μmoles/kg)

T1 sequence (Q8K4Z4 whole entry): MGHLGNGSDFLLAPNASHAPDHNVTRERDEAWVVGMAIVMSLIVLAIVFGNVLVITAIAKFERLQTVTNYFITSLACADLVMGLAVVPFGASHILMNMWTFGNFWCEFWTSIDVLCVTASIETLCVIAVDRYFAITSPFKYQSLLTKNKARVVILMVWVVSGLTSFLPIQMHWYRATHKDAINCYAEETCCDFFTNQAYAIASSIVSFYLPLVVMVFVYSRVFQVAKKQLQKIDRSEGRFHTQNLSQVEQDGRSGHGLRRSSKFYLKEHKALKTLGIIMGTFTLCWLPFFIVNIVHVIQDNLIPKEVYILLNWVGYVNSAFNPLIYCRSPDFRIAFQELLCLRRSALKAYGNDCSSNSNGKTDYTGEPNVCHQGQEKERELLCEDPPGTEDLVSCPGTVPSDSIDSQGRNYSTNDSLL

For `COc1ccc2c(c1OC)CCC(N[C@@H](C)[C@H](O)c1ccc(O)cc1)C2` (relative stereo) [CHF 1255, Erythro-5,6-Dimethoxy-2-[2-(4-hydroxyphenyl)-2-hydroxy-1-mehylethylamino]1,2,3,4-tetrahydronaphthalene hydrochloride], the LD50 ([1]; iv, i.v.) was 59 mg/kg, the LD50 ([1]; po, os) was 1270 mg/kg and the “Contribution of alpha-adrenergic cardiac receptor stimulation to cardiostimulant action” value [2] was “excluded”. For the same molecule, the “Contribution of phosphodiesterase inhibition to cardiostimulant activity” value [3] was “not due to phosphodiesterase inhibition”, the “Activity against contraction by the different agents (in words)” value ([4]; K+, norepinephrine, serotonin) was “particularly active on the norepinephrine induced contraction” and the Emax ([4]; K+ 40 mM, read-out: α (efficacy), K+ induced contraction) was 46%. The Emax ([4]; norepinephrine 5×10^-6 M, read-out: α (efficacy), norepinephrine induced contraction) was 94%, the Emax ([4]; serotonin 5×10^-7 M, read-out: α (efficacy), 5-HT induced contraction) was 60% and the “ED40, K+ induced contraction” value ([4]; dose decreasing contraction by 40%, K+ 40 mM) was 1.5e-06 mol. The “ED40, norepinephrine induced contraction” value ([4]; dose decreasing contraction by 40%, norepinephrine 5×10^-6 M) was 1.2e-08 mol, the “ED40, 5-HT induced contraction” value ([4]; dose decreasing contraction by 40%, serotonin 5×10^-7 M) was 6.5e-07 mol and the “α-blocking activity in rabbit isolated aorta” value [5] was “competitive inhibition of the noprepinephrine dose--response curve”. The “Shift of dose-response curve by beta-1 blocker atenolol” value ([6]; atenolol 10^-8 to 3×10^-7 M) was “shifted the dose-responsive curve of CHF 1255 to the right in a dose-dependent way”, the “Receptor mediating the inotropic activity” value ([6]; mechanism study) was “due to the stimulation of beta-1 adrenergic receptors” and the LD50 ([7]; iv, i.v.) was 65 mg/kg. The LD50 ([7]; po, os) was 325 mg/kg, the “Contribution of histaminergic H1 receptor stimulation to cardiostimulant action” value [8] was “excluded” and the EC50 ([9]; Table 3, inotropic activity, rat left atrium) was 3.01 µM. For the same molecule, the EC50 ([9]; Table I, isolated rat left atrium, 4 Hz stimulation, confidence limits in parentheses) was 3 µM, the Emax ([9]; Table 3, isoproterenol=1, read-out: α, left atrium (force)) was 60% and the Emax ([9]; Table I, isoproterenol taken=1, confidence limits in parentheses, read-out: α (intrinsic activity), left atrium (force)) was 60%. The “Cardiostimulating potency compared with dopamine and CHF 1026” value ([9]; Table 1 comparison) was “potency comparable to those of dopamine and of CHF 1026”, the “Intrinsic activity / type of agonism (in words)” value ([9]; beta-1 adrenergic receptors) was “partial agonist of beta-1 adrenergic receptors” and the “Potency ratio vs amrinone (times higher)” value ([9]; increase of contraction force, 50% of maximum effect, higher than amrinone) was “about 10 times”. For the same molecule, the “Potency ratio vs xamoterol (times lower)” value ([9]; increase of contraction force, 50% of maximum effect, lower than xamoterol) was “about 300 times”, the “Effect of propranolol on dose-response curve” value ([10]; 10^-6 M propranolol) was “remain unchanged” and the Emax ([10]; guinea pig, isoproterenol=1, without propranolol, read-out: α in absence of propranolol) was 94%. For the same molecule, the “Stimulation of beta-2 adrenergic receptors (in words)” value ([10]; guinea-pig trachea) was “does not stimulate beta-2 adrenergic receptors”, the EC50 ([10]; guinea-pig trachea, with 10^-6 M propranolol, read-out: EC50 in presence of propranolol) was 4.6 µM and the EC50 ([10]; guinea-pig trachea, without propranolol, read-out: EC50 in absence of propranolol) was 3.4 µM. For the same molecule, the “α in presence of propranolol” value ([10]; isoproterenol=1, with 10^-6 M propranolol) was 0.72, the “Hemodynamic effects (in words)” value ([11]; anesthetized dog, i.v.) was “more relevant than those of amrinone” and the Duration of activity ([11]; dog, in vivo) was “long-lasting”. The Hypotensive action [11, 15] was -17%, the “Increase of the cardiac output” value [11, 15] was 17% and the “Increase of the stroke volume” value [11, 15] was 10. For the same molecule, the “Reduction of the systemic arterial resistances” value (“Reduction” for short) [11, 15] was -28%, the Hypotensive action [11, 16] was -22% and the “Increase of the cardiac output” value [11, 16] was 28%. For the same molecule, the “Increase of the stroke volume” value [11, 16] was 16, the “Reduction” value [11, 16] was -37% and the Hypotensive action [11, 17] was -31%. The “Increase of the cardiac output” value [11, 17] was 34%, the “Increase of the stroke volume” value [11, 17] was 21 and the “Reduction” value [11, 17] was -45%. For the same molecule, the “Inotropic effect, dF/dT index (in words)” value ([11]; peak of first derivative of aortic flow) was “remarkable inotropic effect increasing the dF/dT index”, the “Tachycardic and arrhythmogenic activity due to stimulation of beta-2 receptors” value [12] was “no tachycardic and arrhythmogenic activity” and the EC50 ([13]; Table 3, chronotropic activity, rat right atrium) was 1.32 µM. It also gave an EC50 ([13]; Table I, isolated rat right atrium, confidence limits in parentheses) of 1.3 µM, an Emax ([13]; Table 3, isoproterenol=1, read-out: α, right atrium (frequency)) of 160% and an Emax ([13]; Table I, isoproterenol taken=1, confidence limits in parentheses, read-out: α (intrinsic activity), right atrium (frequency)) of 55%. For the same molecule, the “Chronotropic efficacy compared with xamoterol” value ([13]; Table 3 comparison) was “remarkably lower than that of xamoterol” and the “Contribution of histaminergic H2 receptor stimulation to cardiostimulant action” value [14] was “excluded”.
